Assay results reported in PMC11708044 (mBio, 2024).
pIC50: −log10 of the molar value. Read-outs that look alike come from different tables or passages of the source. Where a SMILES comes first, the peptide text is derived from it. Bridges are numbered along the chain shown (N, C = ends). Roman numbers before positions name the chains, in order. Where no end group is shown, it is not given here. [ ]: non-standard residue; d: D form. Ahx = NCCCCCC(=O)O

Experiments:
IAV strain PR8 [1] = tested on: IAV strain PR8; set-up: species or system BALB/c mice; conditions: mouse, in vivo
[2] = tested on: TNFα production in RAW264.7 cells; assay: ELISA of TNFα production in LPS-treated RAW264.7 cells; type: cell-based, mouse; conditions: RAW264.7, peptide 30 min then LPS 10 ng/mL 24 h
IL-6, TNFα, IL-1β mRNAs = assay: RT-qPCR of proinflammatory cytokine mRNAs in LPS-treated RAW264.7 cells (Fig. S2c); type: cell-based, mouse; conditions: for IL-1β Relative expression AV / IL-6 Relative expression AV / TNFα Relative expression AV: RAW264.7 cells, LPS = 100, mean of n = 3
Experimental: (§1) a LPS promotes tumor necrosis factor α (TNFα) production in RAW264.7 cells. RAW264.7 cells were treated with the indicated concentration of LPS for 24 h. The amount of TNFα produced in the culture medium was measured by ELISA. Data are presented as a percentage of the control value without peptide (n = 3, mean ± SEM). **P < 0.01; ***P < 0.001 (compared with the control by ANOVA followed by one-sided Dunnett’s test). b The effects of M6 and mM3 on the activation of CaMKII in RAW264.7 cells. RAW264.7 cells were incubated with the indicated concentration of each peptide for 30 min, and then treated with 10 ng/ml LPS for 20 min. The cell lysates were analyzed by western blot using phosphorylated […] specific antibody to detect the activation of CaMKII (upper panel). Data are representative of three independent experiments. […] RAW264.7 cells were incubated with the indicated concentration of each peptide for 30 min, and then treated with10 ng/ml LPS for 3 h. The mRNA level of each proinflammatory cytokine was analyzed by quantitative RT-qPCR. Data are presented as the amount of each mRNA relative to that of LPS treatment only (n = 3, mean ± SEM). **P < 0.01, ***P < 0.001 (compared with the control by ANOVA followed by one-sided Tukey’s test).

[3] = tested on: CaMKII Thr286 autophosphorylation; assay: Western blot of LPS-induced CaMKII activation in RAW264.7 cells (Fig. S2b); type: cell-based, mouse
Experimental: as §1

IAV strain PR8 [4] = type: cell-based, type A influenza virus (IAV)
CaMKII-KD = target: T1, CaMKII-KD (Rattus norvegicus, UniProt P11275); assay: Kinase assay: phosphorylation of autocamtide-2 by CaMKII-KD; type: biochemical
T1 construct: made in house; host or cells: Sf21 insect cells, baculovirus (pBacPAK8)

IAV strain PR8 [5] = type: cell-based, type A influenza virus (IAV); remark: listed apart in the source
NP RNA of IAV strain PR8 = type: cell-based, type A influenza virus (IAV)
CCL5 and CXCL10 mRNAs = type: cell-based, canine
IFNα, IFNβ, Mx1 mRNAs = type: cell-based, canine

T1 sequence (P11275 13-271 limits assumed): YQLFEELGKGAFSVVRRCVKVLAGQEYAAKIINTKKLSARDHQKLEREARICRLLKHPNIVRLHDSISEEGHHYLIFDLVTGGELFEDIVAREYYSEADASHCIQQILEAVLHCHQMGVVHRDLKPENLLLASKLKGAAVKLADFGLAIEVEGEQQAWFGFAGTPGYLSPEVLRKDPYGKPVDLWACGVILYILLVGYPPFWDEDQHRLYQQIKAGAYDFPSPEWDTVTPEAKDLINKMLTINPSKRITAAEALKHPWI

## COc1ccc(S(=O)(=O)N(CCO)c2ccccc2CN(C)C/C=C/c2ccc(Cl)cc2)cc1 [KN-93]
IAV strain PR8 [1]
  protection from mortality: provided no protection

## myr-Met-Ala-[no. 3 or 6 motif]-Ala [mM3, N-terminal myristoylated-M3 (myr-Met-Ala-[no. 3 motif]-Ala)]
[2]
  inhibition of TNFα production: inhibited TNFα production similarly to M6
IL-6, TNFα, IL-1β mRNAs; RAW264.7, peptide 30 min then 10 ng/ml LPS 3 h, RT-qPCR
  transcription of IL-6, TNFα and IL-1β: efficiently inhibited
IL-6, TNFα, IL-1β mRNAs; peptide only (no LPS)
  IL-1β Relative expression AV: 0.006044
  IL-6 Relative expression AV: 0.006603
  TNFα Relative expression AV: 2.34
IL-6, TNFα, IL-1β mRNAs; peptide+LPS
  IL-1β Relative expression AV: 16.8504
  IL-6 Relative expression AV: 27.8458
  TNFα Relative expression AV: 57.9321
[3]; RAW264.7, peptide 30 min then 10 ng/ml LPS 20 min, western blot
  LPS-induced Thr286 autophosphorylation of CaMKII: efficiently inhibited
[3]; peptide 10µM, RAW264.7 cells, (-) = 1, mean of n = 3
  Phosphorylation of CaMKII (ratio) AV: 0.8346
IAV strain PR8 [4]
  inhibitory effect on IAV cytopathicity, single cycle of infection: greatest inhibitory effect on IAV cytopathicity at concentrations up to 3 µM

## CC[C@H](C)[C@H](NC(=O)[C@H](CCCNC(=N)N)NC(=O)[C@H](CCCNC(=N)N)NC(=O)[C@H](C)NC(=O)[C@@H](N)CCSC)C(=O)N[C@@H](CC(C)C)C(=O)N[C@@H](CC(C)C)C(=O)N[C@@H](CC(C)C)C(=O)N[C@@H](CC(C)C)C(=O)N[C@@H](CC(C)C)C(=O)N[C@@H](C)C(=O)N[C@@H](CCCNC(=N)N)C(=O)N[C@@H](CC(C)C)C(=O)N[C@@H](Cc1c[nH]cn1)C(=O)N[C@@H](C)C(=O)N[C@@H](CCCCN)C(=O)N[C@@H](CCCCN)C(=O)N[C@@H](CCCCN)C(=O)NCCCCCC(=O)O [M3] (H-MARRILLLLLARLHAKKK[Ahx]-OH)
CaMKII-KD; read-out: IC50
  pIC50: 4.71

## I: MARRRLLLLLARHHAKKK[Ahx]KK-NH2 / II: MARRRLLLLLARHHAKKK[Ahx]K / III: MARRRLLLLLARHHAKKK[Ahx] / IV: MARRRLLLLLARHHAKKK[Ahx] (amide I:20-IV:C, I:21-II:C, II:20-III:C) [T1]
CaMKII-KD
  pIC50: 5.62

## I: MARRILLLLLALLHAKKK[Ahx]KK-NH2 / II: MARRILLLLLALLHAKKK[Ahx]K / III: MARRILLLLLALLHAKKK[Ahx] / IV: MARRILLLLLALLHAKKK[Ahx] (amide I:20-IV:C, I:21-II:C, II:20-III:C) [T6]
CaMKII-KD
  pIC50: 4.49

## CO/C1=C\C(C)=C\[C@@H](C)[C@@H](O)[C@@H](C)C/C(C)=C/C=C/[C@H](OC)[C@@H]([C@@H](C)[C@@H](O)[C@H](C)[C@@]2(O)C[C@@H](O)[C@H](C)[C@@H](C(C)C)O2)OC1=O [bafilomycin A1, reference compound]
IAV strain PR8 [5]
  fusion process / virus entry into cells: efficiently inhibited virus entry into cells

## Cc1nn(CC(F)(F)F)cc1Nc1ncc(Br)c(NCc2ccc(S(N)(=O)=O)cc2)n1 [GSK8612]
IAV strain PR8 [4]
  IAV-induced cytopathicity of MDCK cells, time of addition: best when GSK8612 was added up to 3 h after infection

## CC[C@H](C)[C@H](NC(=O)[C@H](CCCNC(=N)N)NC(=O)[C@H](CCCNC(=N)N)NC(=O)[C@H](C)NC(=O)[C@@H](N)CCSC)C(=O)N[C@@H](CC(C)C)C(=O)N[C@@H](CC(C)C)C(=O)N[C@@H](CC(C)C)C(=O)N[C@@H](CC(C)C)C(=O)N[C@@H](CC(C)C)C(=O)N[C@@H](C)C(=O)N[C@@H](CCCNC(=N)N)C(=O)N[C@@H](Cc1c[nH]cn1)C(=O)N[C@@H](Cc1c[nH]cn1)C(=O)N[C@@H](C)C(=O)N[C@@H](CCCCN)C(=O)N[C@@H](CCCCN)C(=O)N[C@@H](CCCCN)C(=O)NCCCCCC(=O)O [M2] (H-MARRILLLLLARHHAKKK[Ahx]-OH)
CaMKII-KD; read-out: IC50
  pIC50: 4.47

## O=C1c2c(O)c(=O)ccn2N([C@@H]2c3ccccc3SCc3c2ccc(F)c3F)[C@@H]2COCCN12 [BXA, Baloxavir acid]
NP RNA of IAV strain PR8
  infection-induced expression of NP mRNA: efficiently inhibited
CCL5 and CXCL10 mRNAs
  expression of CXCL10 and CCL5 mRNAs: also increased their expression
IAV strain PR8 [4]
  infection-induced cytopathicity: efficiently inhibited
IFNα, IFNβ, Mx1 mRNAs
  expression of IFNα and β mRNAs early in infection: rather increased the expression of both mRNAs
  expression of IFNα and β mRNAs later in infection: greatly reduced

## CSCC[C@H](N)C(=O)N[C@@H](C)C(=O)N[C@@H](CCCNC(=N)N)C(=O)N[C@@H](CCCNC(=N)N)C(=O)N[C@@H](CCCNC(=N)N)C(=O)N[C@@H](CC(C)C)C(=O)N[C@@H](CC(C)C)C(=O)N[C@@H](CC(C)C)C(=O)N[C@@H](CC(C)C)C(=O)N[C@@H](CC(C)C)C(=O)N[C@@H](C)C(=O)N[C@@H](CCCNC(=N)N)C(=O)N[C@@H](Cc1c[nH]cn1)C(=O)N[C@@H](Cc1c[nH]cn1)C(=O)N[C@@H](C)C(=O)N[C@@H](CCCCN)C(=O)N[C@@H](CCCCN)C(=O)N[C@@H](CCCCN)C(=O)NCCCCCC(=O)O [M1] (H-MARRRLLLLLARHHAKKK[Ahx]-OH)
CaMKII-KD; read-out: IC50
  pIC50: 4.53

## I: MARRILLLLLARLHAKKK[Ahx]KK-NH2 / II: MARRILLLLLARLHAKKK[Ahx]K / III: MARRILLLLLARLHAKKK[Ahx] / IV: MARRILLLLLARLHAKKK[Ahx] (amide I:20-IV:C, I:21-II:C, II:20-III:C) [T3]
CaMKII-KD
  pIC50: 5.07

## I: MARRILLLLLARHHAKKK[Ahx]KK-NH2 / II: MARRILLLLLARHHAKKK[Ahx]K / III: MARRILLLLLARHHAKKK[Ahx] / IV: MARRILLLLLARHHAKKK[Ahx] (amide I:20-IV:C, I:21-II:C, II:20-III:C) [T2]
CaMKII-KD
  pIC50: 4.85

## CC[C@H](C)[C@H](NC(=O)[C@H](CCCNC(=N)N)NC(=O)[C@H](C)NC(=O)[C@@H](N)CCSC)C(=O)N[C@H](C(=O)N[C@@H](CC(C)C)C(=O)N[C@@H](CC(C)C)C(=O)N[C@@H](CC(C)C)C(=O)N[C@@H](CC(C)C)C(=O)N[C@@H](CC(C)C)C(=O)N[C@@H](C)C(=O)N[C@@H](CCCNC(=N)N)C(=O)N[C@@H](CC(C)C)C(=O)N[C@@H](Cc1c[nH]cn1)C(=O)N[C@@H](C)C(=O)N[C@@H](CCCCN)C(=O)N[C@@H](CCCCN)C(=O)N[C@@H](CCCCN)C(=O)NCCCCCC(=O)O)[C@@H](C)CC [M5] (H-MARIILLLLLARLHAKKK[Ahx]-OH)
CaMKII-KD; read-out: IC50
  pIC50: 4.95

## CO/C1=C\C(C)=C\[C@@H](C)[C@@H](O)[C@@H](C)C/C(C)=C/C=C/[C@H](OC)[C@@H]([C@@H](C)[C@@H](O)[C@H](C)[C@@]2(O)C[C@@H](O)[C@H](C)[C@@H](C(C)C)O2)OC1=O [baf]
IAV strain PR8 [5]
  DiO positive vesicles (DiO/R18) Average: 0.08663

## CC[C@H](C)[C@H](NC(=O)[C@H](CCCNC(=N)N)NC(=O)[C@H](CCCNC(=N)N)NC(=O)[C@H](C)NC(=O)[C@@H](N)CCSC)C(=O)N[C@@H](CC(C)C)C(=O)N[C@@H](CC(C)C)C(=O)N[C@@H](CC(C)C)C(=O)N[C@@H](CC(C)C)C(=O)N[C@@H](CC(C)C)C(=O)N[C@@H](C)C(=O)N[C@@H](CC(C)C)C(=O)N[C@@H](CC(C)C)C(=O)N[C@@H](Cc1c[nH]cn1)C(=O)N[C@@H](C)C(=O)N[C@@H](CCCCN)C(=O)N[C@@H](CCCCN)C(=O)N[C@@H](CCCCN)C(=O)NCCCCCC(=O)O [M6] (H-MARRILLLLLALLHAKKK[Ahx]-OH)
CaMKII-KD; read-out: IC50
  pIC50: 4.91
